Laboratory results reported in publication PMC10290391, “Targeted degradation of ⍺-synuclein aggregates in Parkinson’s disease using the AUTOTAC technology” (Molecular Neurodegeneration, 2023).

Legend:
[1] = tested on: extracellular total α-syn; assay: ELISA of extracellular α-syn in conditioned media of SH-SY5Y α-syn A53T cells; type: cell-based, human
Procedure: The conditioned medium was collected from differentiated SH-SY5Y cells infected with adenovirus overexpressing human α-syn. Following 24 h infection, the medium was replaced with fresh media containing DMSO or ATC161. The medium was collected after 24 h and centrifuged at 1,000 rpm to remove cell debris and dead cells. The supernatant was concentrated using Amicon 10 K MWCO filters (Millipore, Billerica, MA). The amounts of α-syn in conditioned medium were measured by enzyme-linked immunosorbent assay (ELISA) with an ELISA kit (Abcam, human α-syn ELISA kit, ab260052) following the provider’s instruction. The subsets of collected media were treated to fresh SH-SY5Y cells in order to determine the level of α-syn propagated to the fresh cells.

[2] = Brain penetration of ATC161 in TauP301L-BiFC AD mouse model; type: in vivo, mice; conditions: after 4 h of oral administration
Procedure: Supplementary file 13024_2023_630_MOESM1_ESM.eps: Additional file 1: Supplementary figure 1. Drug profiles of ATL and Autotac compounds. A, drug profiles of ATL compounds. Tissue concentrations and oral bioavailability were measured in ICR male mice upon 5 mg/kg oral administration of each ATL compound. B, structures of ATC161~164. C, Pharmacokinetic study of ATC161 conducted in male ICR mice otherwise indicated. M.W. represents molecular weight. The plasma exposure and the half-life were determined upon either POor IPATC161 administration. The drug tissue exposure was determined in Tau301L BiFC mice. IV refers to intravenous injection.

[3] = tested on: SH-SY5Y α-syn A53T cells; assay: MitoTracker Red analysis in SH-SY5Y α-syn A53T cells treated with rotenone; type: cell-based, human; conditions: 0.1 μM, 24 h; vs vehicle-treated cells
Procedure: Adenovirus overexpressing human wild-type SNCA was kindly gifted from the lab of S.J.L. COS7 cells were infected with the adenovirus overexpressing human α-syn at 0.8 × 10^8 pfu and incubated at 37 °C for 24 h. When the confluency reached 90%, the cells were split onto 6-well plates for further experiments. The α-syn aggregation was induced by the treatment of 100 nM rotenone (Sigma-Aldrich, R8875) for 56 h. For the MitoTracker analyses in SH-SY5Y α-syn A53T cells, rotenone was treated at 1 µM for 48 h with the co-treatment of 100 nM ATC161 for 24 h, then MitoTracker Red CMXRos (Invitrogen; M7512) was used to stain intact mitochondria following the manufacturer’s instruction.

[4] = target: T1, p62 (Homo sapiens, UniProt Q13501); assay: Western blot of p62 oligomerization in HeLa cells; type: cell-based
T1 construct: endogenous in cells; host or cells: HeLa
Procedure: (§1) For the separation of Triton X-100 soluble and insoluble fractions for monitoring α-syn, cells were washed with PBS and lysed in Triton X-100 buffer (50 mM Tris / 150 mM NaCl / 100 mM EDTA / 1% Triton X-100, pH 7.6) containing protease and phosphatase inhibitors for 30 min on ice. The lysates were centrifuged at 12,000 rpm for 30 min, and the soluble supernatant was taken. The remaining pellets were washed with Triton X-100 buffer, followed by centrifugation at 12,000 rpm for 20 min. The supernatants were discarded, and the resulting insoluble pellets were resuspended in laemli buffer containing 1% SDS. Samples were subjected to SDS-PAGE. After blocking with 5% milk and washing process, the membranes were incubated with primary antibodies overnight at 4 °C, followed by washing with PBS-T and incubation with horseradish peroxidase-conjugated secondary antibodies. Immunoreactive bands were detected using ECL reagents (Thermo Fisher Scientific, 32,106). For non-reducing SDS-PAGE, cell lysates were mixed with 4 × laemli buffer containing no 2-mercaptoethanol. For reducing SDS-PAGE, cells were lysed by RIPA buffer (150 mM NaCl, 1% Triton X-100, 1% sodium deoxycholate, 0.1% Tris–HCl, pH 7.5, 2 mM EDTA) and prepared with 5 × protein sample buffer containing 2-mercaptoethanol (Elpis Biotech, EBA-1052). Densitometry of developed bands was analyzed with ImageJ (NIH, Bethesda).

[5] = tested on: cleaved-PARP1; assay: Western blot of cleaved-PARP1 in h-α-syn PFF-transduced HEK293A cells; type: cell-based, human; conditions: 1 μM, 24 h
Procedure: as §1

[6] = tested on: α-syn PFF-injected mouse model; type: in vivo; conditions: 10 mg/kg oral
Procedure: Mice were anesthetized and perfused with PBS and 4% paraformaldehyde. Brains were sectioned at 30 μm thickness by vibratome (Leica). Free-floating sections were blocked with PBS containing 5% serum and 0.3% Triton X-100 for 1 h. The sections were then incubated with an anti-tyrosine hydroxylase (TH) antibody (1:5,000, Sigma, T1299) overnight at 4℃. The sections were incubated with biotinylated secondary antibody for 1 h at room temperature. The signal amplification was achieved by the ABC kit (Vector) followed by development with DAB (Vector). TH^+ optical density was measured in three brain sections per animal. Images of the ipsilateral and contralateral striatal area were obtained using an Axio scan Z1 slide scanner (Zeiss). Images were converted to grayscale via Image J, and the intensity was analyzed. Normalized values across the sections were used to compare the relative TH^+ optical density.
Intrastriatal injection of α-syn fibrils was performed in C57BL6/J male mice at 8 weeks of age. 5 µg of α-syn fibrils were sonicated and injected into the dorsal striata in mice at the empirically derived coordinates: 1.0 mm anterior and 1.5 mm lateral to the Bregma, and 3.0 mm ventral relative to the skull in the course of 20 min. Scalp incisions were closed by suture. […]
Brain sections were cut into 30 µm on a freezing microtome, and stored in tissue storage solution at -20 °C. Sections were washed with PBS and incubated with blocking buffer (2% normal goat serum, 1% BSA, 1% Triton X-100, and Tween-20 in PBS) for 1 h at room temperature. After washing with PBS, sections were incubated with primary antibodies (pS129-α-syn, GFAP) overnight at 4 °C, followed by secondary Goat anti-mouse AlexaFluor488 and Goat anti-rabbit AlexaFluor555 for 1 h at room temperature. Images were processed by Axio Scan Z1 (Carl Zeiss). In order to quantify the number of neurons in the PFF-injected striatum, the brain sections were stained with 0.1% crystal violet solution containing 0.1% acetic acid for 1 min at 50 ℃ and then rinsed in distilled water. Sections were dehydrated in 95% and 100% alcohol and mounted on slides.
The behavioral tests were performed according to IACUC approval (AUTOTAC Bio Inc., ATB-2107–06-1). The previously generated PFF-injected mouse model was used. For the forelimb grip strength test, a grip strength meter (Bioseb, BIO-GS3) was used. Three consecutive measurements were done for each mouse, and the average was calculated. For the motor coordination test, a rotarod (Bioseb, BX-ROD) was used. Each trial consisted of three attempts.

T1 sequence (Q13501 whole entry): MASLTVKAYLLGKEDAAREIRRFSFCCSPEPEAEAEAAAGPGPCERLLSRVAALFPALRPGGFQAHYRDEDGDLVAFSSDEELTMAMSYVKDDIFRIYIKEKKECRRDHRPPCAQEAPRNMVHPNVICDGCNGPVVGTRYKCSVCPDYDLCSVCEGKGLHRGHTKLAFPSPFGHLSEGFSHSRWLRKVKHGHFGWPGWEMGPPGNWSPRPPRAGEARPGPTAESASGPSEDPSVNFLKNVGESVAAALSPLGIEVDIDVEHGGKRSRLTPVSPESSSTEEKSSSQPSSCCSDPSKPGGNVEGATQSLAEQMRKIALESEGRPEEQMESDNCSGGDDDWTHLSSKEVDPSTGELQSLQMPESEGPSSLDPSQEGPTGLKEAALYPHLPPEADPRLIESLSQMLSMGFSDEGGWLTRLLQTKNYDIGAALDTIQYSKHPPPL

Fc1ccc(COc2cccc(CNCCOCCOCCNc3cccc(-c4cc(-c5ccc6c(c5)OCO6)n[nH]4)c3)c2)cc1 [ATC161, 3-(3-(benzo[d][1,3]dioxol-5-yl)-1H-pyrazol-5-yl)-N-(2-(2-(2-((3-((4-fluorobenzyl)oxy)benzyl)amino)ethoxy)ethoxy)ethyl)aniline]
reduction of relative level of extracellular total α-syn [1]: 50%
Kp at 4 h [2]: ~0.1
MitoTracker fluorescence (mitochondrial integrity) [3]: increased level of MitoTracker signals
p62 oligomerization compared with the other Autotac compounds ([4]; 1 μM, 24 h): most efficiently facilitated p62 oligomerization
concentration inducing p62 oligomerization ([4]; dose-dependent up to 1,000 nM): ~ 1 nM
cleaved-PARP1 level (apoptotic process) [5]: efficiently inhibited such an apoptotic process
neuronal cell death (Nissl staining, injection site) [6]: did not induce neuronal cell death
increase in time on rotarod ([6]; 5 times per week, 16 weeks): 59%
number of GFAP+ signals in striata near endopiriform nucleus ([6]; 9 weeks (45 treatments)): reduced the number of GFAP^+ signals
TH+ fiber level in ipsilateral striatum ([6]; 16 weeks): reversed the TH^+ level to the extent of control group
number of p-α-syn+ aggregates in the contralateral striata ([6]; 16 weeks): attenuated the number of p-α-syn^+ aggregates
peak grip force of fore- and hindlimbs ([6]; 16 weeks): increased the peak grip force of fore- and hindlimbs to the extent of control group
number of p-α-syn+ aggregates in the injection sites ([6]; 16 weeks, vs vehicle): reduced the number of p-α-syn^+ aggregates
